In ChEMBL document CHEMBL4330132, “5-Keto-3-cyano-2,4-diaminothiophenes as selective maternal embryonic leucine zipper kinase inhibitors” (Bioorg Med Chem Lett, 2019):

Tests used:
[1] = target: Leucine-rich repeat serine/threonine-protein kinase 2 (Homo sapiens) (UniProt Q5S007); test: Binding affinity to wild-type human partial length LRRK2 (H970 to E2527 residues) expressed in mammalian expression system assessed as residual binding level at 1 uM by Kinomescan method relative to control
[2] = target: Calcium/calmodulin-dependent protein kinase kinase 1 (Homo sapiens) (UniProt Q8N5S9); test: Binding affinity to wild-type human partial length CAMKK1 (R65 to E414 residues) expressed in bacterial expression system assessed as residual binding level at 1 uM by Kinomescan method relative to control
[3] = target: Tyrosine-protein kinase ABL1 (Homo sapiens) (UniProt P00519); test: Binding affinity to wild-type human non-phosphorylated ABL1 (S229 to K512 residues) expressed in mammalian expression system assessed as residual binding level at 1 uM by Kinomescan method relative to control
[4] = target: Receptor-type tyrosine-protein kinase FLT3 (Homo sapiens) (UniProt P36888); test: Binding affinity to wild-type human partial length FLT3 (V592 to Y969 residues) expressed in bacterial expression system assessed as residual binding level at 1 uM by Kinomescan method relative to control
[5] = target: Serine/threonine-protein kinase MARK2 (Homo sapiens) (UniProt Q7KZI7); test: Binding affinity to wild-type human partial length MARK2 (M1 to R450 residues) expressed in bacterial expression system assessed as residual binding level at 1 uM by Kinomescan method relative to control
Serine/threonine-protein kinase MARK2 (Homo sapiens), sequence (Q7KZI7 whole entry, the tested form may be a part): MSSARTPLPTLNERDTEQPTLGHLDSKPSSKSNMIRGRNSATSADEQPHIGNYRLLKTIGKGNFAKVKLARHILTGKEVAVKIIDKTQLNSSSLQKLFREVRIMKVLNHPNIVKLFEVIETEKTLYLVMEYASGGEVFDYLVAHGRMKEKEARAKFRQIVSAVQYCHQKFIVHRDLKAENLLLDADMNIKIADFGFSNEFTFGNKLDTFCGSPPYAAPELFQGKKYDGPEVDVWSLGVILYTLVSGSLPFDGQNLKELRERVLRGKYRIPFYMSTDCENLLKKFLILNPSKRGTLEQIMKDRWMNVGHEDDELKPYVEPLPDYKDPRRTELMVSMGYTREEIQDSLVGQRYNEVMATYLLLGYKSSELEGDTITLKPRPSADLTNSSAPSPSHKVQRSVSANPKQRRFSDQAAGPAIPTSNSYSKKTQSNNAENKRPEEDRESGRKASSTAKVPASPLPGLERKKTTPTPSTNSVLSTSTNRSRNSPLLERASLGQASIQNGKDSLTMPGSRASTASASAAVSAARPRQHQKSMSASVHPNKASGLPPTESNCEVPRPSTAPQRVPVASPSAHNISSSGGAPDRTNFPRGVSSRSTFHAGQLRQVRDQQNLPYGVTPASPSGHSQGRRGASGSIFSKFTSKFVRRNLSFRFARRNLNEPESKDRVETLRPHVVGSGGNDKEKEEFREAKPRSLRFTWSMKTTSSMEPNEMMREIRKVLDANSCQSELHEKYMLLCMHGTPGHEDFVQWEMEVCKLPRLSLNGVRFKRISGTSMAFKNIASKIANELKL

[6] = target: Tyrosine-protein kinase TXK (Homo sapiens) (UniProt P42681); test: Binding affinity to wild-type human partial length TXK (L238 to W527 residues) expressed in bacterial expression system assessed as residual binding level at 1 uM by Kinomescan method relative to control
[7] = target: Cyclin-dependent kinase 17 (Homo sapiens) (UniProt Q00537); test: Binding affinity to wild-type human full length PCTK2 (M1 to F523 residues) expressed in bacterial expression system assessed as residual binding level at 1 uM by Kinomescan method relative to control
[8] = target: Serine/threonine-protein kinase ICK (Homo sapiens) (UniProt Q9UPZ9); test: Binding affinity to wild-type human partial length ICK (M1 to P314 residues) expressed in mammalian expression system assessed as residual binding level at 1 uM by Kinomescan method relative to control
[9] = target: Ephrin type-A receptor 5 (Homo sapiens) (UniProt P54756); test: Binding affinity to wild-type human partial length EPHA5 (T627 to V930 residues) expressed in bacterial expression system assessed as residual binding level at 1 uM by Kinomescan method relative to control
Ephrin type-A receptor 5 (Homo sapiens), sequence (P54756 whole entry, the tested form may be a part): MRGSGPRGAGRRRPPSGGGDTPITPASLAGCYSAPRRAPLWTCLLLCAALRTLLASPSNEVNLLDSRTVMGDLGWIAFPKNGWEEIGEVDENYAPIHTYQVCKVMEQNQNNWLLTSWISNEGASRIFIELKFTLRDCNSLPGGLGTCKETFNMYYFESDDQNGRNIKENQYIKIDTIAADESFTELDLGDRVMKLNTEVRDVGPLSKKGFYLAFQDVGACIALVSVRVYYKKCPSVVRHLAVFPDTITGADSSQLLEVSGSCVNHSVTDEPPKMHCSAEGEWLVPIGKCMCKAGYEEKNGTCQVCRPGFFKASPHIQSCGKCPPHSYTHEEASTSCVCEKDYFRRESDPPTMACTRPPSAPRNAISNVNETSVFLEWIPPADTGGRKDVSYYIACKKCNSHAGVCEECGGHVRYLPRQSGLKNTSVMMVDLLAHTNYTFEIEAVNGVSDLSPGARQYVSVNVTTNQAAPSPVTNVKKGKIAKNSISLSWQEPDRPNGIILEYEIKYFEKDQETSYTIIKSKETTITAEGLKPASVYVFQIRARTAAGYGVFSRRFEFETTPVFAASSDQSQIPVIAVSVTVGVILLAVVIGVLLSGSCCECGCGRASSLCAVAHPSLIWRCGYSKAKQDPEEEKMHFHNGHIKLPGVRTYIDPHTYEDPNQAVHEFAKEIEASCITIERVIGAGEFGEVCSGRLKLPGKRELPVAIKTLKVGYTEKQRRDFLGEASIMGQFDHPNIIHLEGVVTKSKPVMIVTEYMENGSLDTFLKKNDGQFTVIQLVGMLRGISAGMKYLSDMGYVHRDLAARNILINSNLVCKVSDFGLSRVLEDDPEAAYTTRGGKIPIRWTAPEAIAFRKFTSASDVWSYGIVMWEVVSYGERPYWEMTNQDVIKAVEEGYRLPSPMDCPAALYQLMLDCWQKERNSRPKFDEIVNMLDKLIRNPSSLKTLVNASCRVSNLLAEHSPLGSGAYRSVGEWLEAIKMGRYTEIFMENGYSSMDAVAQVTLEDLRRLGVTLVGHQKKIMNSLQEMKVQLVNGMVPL

[10] = target: Bone morphogenetic protein receptor type-2 (Homo sapiens) (UniProt Q13873); test: Binding affinity to wild-type human partial length BMPR2 (R179 to Q526 residues) expressed in mammalian expression system assessed as residual binding level at 1 uM by Kinomescan method relative to control
Bone morphogenetic protein receptor type-2 (Homo sapiens), sequence (Q13873 whole entry, the tested form may be a part): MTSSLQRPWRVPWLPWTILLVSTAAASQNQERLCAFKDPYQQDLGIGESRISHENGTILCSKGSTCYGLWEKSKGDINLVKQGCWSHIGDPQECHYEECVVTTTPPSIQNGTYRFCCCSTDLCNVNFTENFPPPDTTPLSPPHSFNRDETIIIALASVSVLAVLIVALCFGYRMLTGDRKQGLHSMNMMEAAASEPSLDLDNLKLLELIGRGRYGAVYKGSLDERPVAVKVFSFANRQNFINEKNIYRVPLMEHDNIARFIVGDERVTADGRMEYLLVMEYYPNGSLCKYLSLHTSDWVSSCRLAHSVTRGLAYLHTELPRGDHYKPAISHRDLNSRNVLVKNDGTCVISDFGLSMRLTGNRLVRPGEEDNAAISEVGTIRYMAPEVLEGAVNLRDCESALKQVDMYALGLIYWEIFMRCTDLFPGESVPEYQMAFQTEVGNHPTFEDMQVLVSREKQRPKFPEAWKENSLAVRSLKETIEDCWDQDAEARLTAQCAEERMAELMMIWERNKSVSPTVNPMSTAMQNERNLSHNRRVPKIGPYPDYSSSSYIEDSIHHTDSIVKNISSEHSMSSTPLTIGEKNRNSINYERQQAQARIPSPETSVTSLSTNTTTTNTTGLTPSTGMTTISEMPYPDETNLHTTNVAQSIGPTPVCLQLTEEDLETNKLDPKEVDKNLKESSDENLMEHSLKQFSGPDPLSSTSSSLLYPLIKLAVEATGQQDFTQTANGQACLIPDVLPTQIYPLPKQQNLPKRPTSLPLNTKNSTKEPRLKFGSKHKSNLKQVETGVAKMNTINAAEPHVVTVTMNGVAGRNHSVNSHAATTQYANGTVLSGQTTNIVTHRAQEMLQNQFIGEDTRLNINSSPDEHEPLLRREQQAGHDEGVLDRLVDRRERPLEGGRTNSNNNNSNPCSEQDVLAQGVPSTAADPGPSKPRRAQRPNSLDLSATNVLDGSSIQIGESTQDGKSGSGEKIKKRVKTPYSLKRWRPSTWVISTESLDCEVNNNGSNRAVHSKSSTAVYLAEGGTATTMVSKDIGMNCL

[11] = target: Insulin-like growth factor 1 receptor (Homo sapiens) (UniProt P08069); test: Binding affinity to wild-type human partial length IGF1R (L972 to D1294 residues) expressed in bacterial expression system assessed as residual binding level at 1 uM by Kinomescan method relative to control
[12] = target: Phosphatidylinositol 4,5-bisphosphate 3-kinase catalytic subunit beta isoform (Homo sapiens) (UniProt P42338); test: Binding affinity to wild-type human partial length PIK3CB (P118 to S1070 residues) expressed in mammalian expression system assessed as residual binding level at 1 uM by Kinomescan method relative to control
[13] = target: Cyclin-dependent kinase 16 (Homo sapiens) (UniProt Q00536); test: Binding affinity to wild-type human partial length PCTK1 (G160 to A474 residues) expressed in mammalian expression system assessed as residual binding level at 1 uM by Kinomescan method relative to control
[14] = target: Eukaryotic translation initiation factor 2-alpha kinase 1 (Homo sapiens) (UniProt Q9BQI3); test: Binding affinity to wild-type human partial length EIF2AK1 (Q147 to E603 residues) expressed in mammalian expression system assessed as residual binding level at 1 uM by Kinomescan method relative to control
[15] = target: Ribosomal protein S6 kinase alpha-4 (Homo sapiens) (UniProt O75676); test: Binding affinity to wild-type human partial length N-terminal RPS6KA4 kinase domain 1 expressed in bacterial expression system assessed as residual binding level at 1 uM by Kinomescan method relative to control
[16] = target: 3-phosphoinositide-dependent protein kinase 1 (Homo sapiens) (UniProt O15530); test: Binding affinity to wild-type human full length PDPK1 (M1 to Q556 residues) expressed in bacterial expression system assessed as residual binding level at 1 uM by Kinomescan method relative to control
[17] = target: Mitogen-activated protein kinase kinase kinase kinase 5 (Homo sapiens) (UniProt Q9Y4K4); test: Binding affinity to wild-type human partial length MAP4K5 (M1 to P297 residues) expressed in bacterial expression system assessed as residual binding level at 1 uM by Kinomescan method relative to control
[18] = target: Serine/threonine-protein kinase/endoribonuclease IRE1 (Homo sapiens) (UniProt O75460); test: Binding affinity to wild-type human partial length ERN1 (S551 to E852 residues) expressed in mammalian expression system assessed as residual binding level at 1 uM by Kinomescan method relative to control
[19] = target: Receptor tyrosine-protein kinase erbB-3 (Homo sapiens) (UniProt P21860); test: Binding affinity to wild-type human partial length ERBB3 (G684 to A987 residues) expressed in mammalian expression system assessed as residual binding level at 1 uM by Kinomescan method relative to control
Receptor tyrosine-protein kinase erbB-3 (Homo sapiens), sequence (P21860 whole entry, the tested form may be a part): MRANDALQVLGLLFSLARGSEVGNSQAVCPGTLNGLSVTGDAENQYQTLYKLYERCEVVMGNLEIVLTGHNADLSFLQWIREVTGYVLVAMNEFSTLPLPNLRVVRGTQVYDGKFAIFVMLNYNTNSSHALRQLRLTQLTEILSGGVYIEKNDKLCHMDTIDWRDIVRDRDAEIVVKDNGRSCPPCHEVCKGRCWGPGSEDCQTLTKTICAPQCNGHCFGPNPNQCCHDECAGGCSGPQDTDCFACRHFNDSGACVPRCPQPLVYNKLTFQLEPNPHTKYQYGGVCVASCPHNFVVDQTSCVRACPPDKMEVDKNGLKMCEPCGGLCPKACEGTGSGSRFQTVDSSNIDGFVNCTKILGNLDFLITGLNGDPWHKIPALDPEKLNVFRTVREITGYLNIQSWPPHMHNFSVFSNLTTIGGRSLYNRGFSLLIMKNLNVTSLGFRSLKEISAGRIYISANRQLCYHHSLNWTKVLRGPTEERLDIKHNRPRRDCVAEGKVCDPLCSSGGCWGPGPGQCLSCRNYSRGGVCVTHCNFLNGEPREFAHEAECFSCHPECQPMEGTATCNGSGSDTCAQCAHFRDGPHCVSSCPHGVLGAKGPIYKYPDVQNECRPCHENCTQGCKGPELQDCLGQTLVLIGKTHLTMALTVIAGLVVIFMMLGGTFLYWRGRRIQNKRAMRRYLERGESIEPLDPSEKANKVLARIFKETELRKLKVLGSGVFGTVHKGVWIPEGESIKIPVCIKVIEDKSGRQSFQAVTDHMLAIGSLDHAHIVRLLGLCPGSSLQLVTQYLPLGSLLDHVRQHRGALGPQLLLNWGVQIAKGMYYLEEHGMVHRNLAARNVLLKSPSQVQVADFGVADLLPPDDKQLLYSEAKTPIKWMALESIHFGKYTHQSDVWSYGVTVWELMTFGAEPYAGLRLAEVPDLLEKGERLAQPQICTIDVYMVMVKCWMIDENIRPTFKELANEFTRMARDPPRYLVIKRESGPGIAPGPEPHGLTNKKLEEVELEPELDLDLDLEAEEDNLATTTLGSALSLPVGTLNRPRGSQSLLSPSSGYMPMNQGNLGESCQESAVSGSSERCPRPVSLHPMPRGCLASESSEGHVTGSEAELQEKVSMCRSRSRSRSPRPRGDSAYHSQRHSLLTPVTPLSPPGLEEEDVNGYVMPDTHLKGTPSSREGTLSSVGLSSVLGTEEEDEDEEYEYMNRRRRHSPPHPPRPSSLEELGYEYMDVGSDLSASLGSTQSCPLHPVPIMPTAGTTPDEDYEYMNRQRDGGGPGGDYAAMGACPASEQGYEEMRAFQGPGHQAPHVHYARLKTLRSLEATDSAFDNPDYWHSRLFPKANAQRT

[20] = target: Calcium-dependent protein kinase 1 (Plasmodium falciparum) (UniProt P62344); test: Binding affinity to wild-type Plasmodium falciparum full length CDPK1 (M1 to S524 residues) expressed in mammalian expression system assessed as residual binding level at 1 uM by Kinomescan method relative to control
[21] = target: Serine/threonine-protein kinase Nek11 (Homo sapiens) (UniProt Q8NG66); test: Binding affinity to wild-type human partial length NEK11 (M1 to E313 residues) expressed in mammalian expression system assessed as residual binding level at 1 uM by Kinomescan method relative to control
[22] = target: Serine/threonine-protein kinase Sgk3 (Homo sapiens) (UniProt Q96BR1); test: Binding affinity to wild-type human partial length SGK3 (M119 to L496 residues) expressed in mammalian expression system assessed as residual binding level at 1 uM by Kinomescan method relative to control
Serine/threonine-protein kinase Sgk3 (Homo sapiens), sequence (Q96BR1 whole entry, the tested form may be a part): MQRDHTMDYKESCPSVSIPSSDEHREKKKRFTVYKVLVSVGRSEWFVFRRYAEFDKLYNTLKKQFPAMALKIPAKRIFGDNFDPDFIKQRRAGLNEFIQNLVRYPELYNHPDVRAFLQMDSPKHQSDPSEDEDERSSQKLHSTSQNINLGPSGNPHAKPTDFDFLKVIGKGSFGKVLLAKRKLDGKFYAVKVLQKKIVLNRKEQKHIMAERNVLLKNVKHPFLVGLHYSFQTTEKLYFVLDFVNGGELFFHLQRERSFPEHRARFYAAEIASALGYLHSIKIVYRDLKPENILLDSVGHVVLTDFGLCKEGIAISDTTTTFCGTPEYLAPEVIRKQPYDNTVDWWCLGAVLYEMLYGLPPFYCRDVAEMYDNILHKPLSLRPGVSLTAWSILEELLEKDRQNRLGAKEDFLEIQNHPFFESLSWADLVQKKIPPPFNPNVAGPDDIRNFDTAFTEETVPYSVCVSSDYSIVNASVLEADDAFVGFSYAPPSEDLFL

[23] = target: Mitogen-activated protein kinase 10 (Homo sapiens) (UniProt P53779); test: Binding affinity to wild-type human partial length JNK3 (V28 to Q422 residues) expressed in mammalian expression system assessed as residual binding level at 1 uM by Kinomescan method relative to control
[24] = target: Calcium/calmodulin-dependent protein kinase type 1D (Homo sapiens) (UniProt Q8IU85); test: Binding affinity to wild-type human partial length CAMK1D (M1 to K299 residues) expressed in bacterial expression system assessed as residual binding level at 1 uM by Kinomescan method relative to control
Calcium/calmodulin-dependent protein kinase type 1D (Homo sapiens), sequence (Q8IU85 whole entry, looked up, the tested form may be a part): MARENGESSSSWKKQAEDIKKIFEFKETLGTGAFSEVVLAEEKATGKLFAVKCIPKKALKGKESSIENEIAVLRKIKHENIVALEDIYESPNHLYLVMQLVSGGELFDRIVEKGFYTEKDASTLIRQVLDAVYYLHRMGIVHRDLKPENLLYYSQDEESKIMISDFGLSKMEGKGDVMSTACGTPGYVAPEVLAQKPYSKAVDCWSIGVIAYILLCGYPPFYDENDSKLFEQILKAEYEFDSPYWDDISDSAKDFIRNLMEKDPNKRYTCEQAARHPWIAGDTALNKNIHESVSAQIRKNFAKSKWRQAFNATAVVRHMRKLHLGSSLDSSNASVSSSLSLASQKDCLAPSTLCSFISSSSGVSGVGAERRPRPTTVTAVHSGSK

Which Activity [1] does the source give for `CC(C)Nc1sc(C(=O)c2ccc(Cl)s2)c(N)c1C#N` here?
Its Activity is 81%.

What about the Activity [2] of the same molecule?
Its Activity is 72%.

And the Activity [3]?
The Activity was 100%.

What about the Activity [4] of the same molecule?
The Activity was 93%.

What about the Activity [5] of the same molecule?
Its Activity is 91%.

What about the Activity [6] of the same molecule?
Its Activity is 87%.

And the Activity [7]?
Its Activity is 87%.

And the Activity [8]?
The Activity was 100%.

And the Activity [9]?
Its Activity is 100%.

What about the Activity [10] of the same molecule?
The Activity was 99%.

What about the Activity [11] of the same molecule?
The Activity was 90%.

And the Activity [12]?
The Activity was 90%.

What about the Activity [13] of the same molecule?
Its Activity is 100%.

And the Activity [14]?
Its Activity is 100%.

What about the Activity [15] of the same molecule?
Its Activity is 100%.

And the Activity [16]?
Its Activity is 84%.

And the Activity [17]?
Its Activity is 78%.

And the Activity [18]?
Its Activity is 100%.

What about the Activity [19] of the same molecule?
The Activity was 75%.

And the Activity [20]?
Its Activity is 67%.

And the Activity [21]?
Its Activity is 97%.

And the Activity [22]?
The Activity was 100%.

What about the Activity [23] of the same molecule?
Its Activity is 100%.

And the Activity [24]?
The Activity was 94%.
